One assay deals with MDA-MB-231. Briefly: Growth inhibition, Sulforhodamine B (SRB) or Systmex cell counting (CC) assay, MDA-MB-231. The settings on record: Homo sapiens; MDA-MB-231 (footnote b); concentration required to inhibit net cell growth by 50%; read-out: Cancer cell line IC50. The assay is classed as cell-based.
In assay [1] the test system is Human umbilical vein endothelial cells (HUVECs), tumour type activated (Tum). Briefly: Proliferation Assay - Activated Endothelium (MTT). The assay is classed as cell-based. As to conditions: for IC50: Homo sapiens, HUVEC, tumour type activated endothelial cells; for potency towards activated (tumour) versus quiescent (normal) endothelial cells: comparison of activated and quiescent HUVEC assays, FIGS. 1 and 2, Table 1. The method, then:
Proliferation Assay—Activated Endothelium:
Cells were cultured overnight at 37° C. 5% CO2. Medium was subsequently replaced with fresh medium including the compound or negative control. Cells were cultured for a period of 48 hrs. An MTT assay was performed to measure changes in cell numbers. Briefly, 20 μl of MTT reagent was added to cells containing 100 μl of EGM2 and incubated at 37° C. for 2 hours.

Assay [2] has as its system Human umbilical vein endothelial cells (HUVECs), normal quiescent type (Norm). The assay is described as follows: Proliferation Assay - Quiescent Endothelium (MTT). The assay is classed as cell-based. The settings on record: HUVEC. The procedure: Proliferation Assay—Quiescent Endothelium:
Cells were cultured overnight at 37° C. 5% CO2. Medium was subsequently replaced with fresh medium including the compound or negative control. Cells were cultured for a period of 48 hrs. An MTT assay was performed to measure changes in cell numbers. Briefly, 20 μl of MTT reagent was added to cells containing 100 μl of EBM2+0.5% FBS and incubated at 37° C. for 2 hours.

For assay [3], the system named is MDA-MB-231 solid orthotopic tumors. Briefly: Tumor Growth Inhibition. The assay is classed as in vivo, Balb/c nu/nu mice. The settings on record: 40 mg/kg i.v., two cycles, 72 days; vs vehicle, significant from day 4 (p<0.001) to Day 70, FIG. 5. The procedure: Balb/c nu/nu mice bearing MDA-MB-231 solid orthotopic tumors were treated with compound Example 29 at 40 mg/kg. Animals were i.v. dosed with a total of two cycles of Example 29 treatment. Each cycle was dosing on […] followed by a three week no-dosing period. Tumor growth represented as a ratio to initial tumor volume is shown over a total of 72-days.
Tumor growth as well as animal health were monitored for up to 72 days post-day 1 of treatment. […] Significant differences in tumor growth between Example 29 treated (n=64) and vehicle treated (n=20) animals were observed as early as day 4 (p<0.001; unpaired t-test; Prism® analysis) through to Day 70.

Assay [4] has as its system MDA MB 231 orthotopic xenografts. The assay is described as follows: Vascular Disruption Assay (tumor perfusion, Hoechst 33342). The format is in vivo, BALB/c-nu/nu mice. As to conditions: compared with CA4 / CA4P, FIG. 4; i.v., 24 hours after injection. From the text: Vascular Disruption Assay:
Female athymic BALB/c-nu/nu mice (nude mice) were used for this study. Mice were between 6-8 weeks old and were purchased from the Animal Resource Centre, Perth, Western Australia and allowed to acclimatize for a couple of days. All the animals were housed under pathogen-free conditions and cared for in accordance with Flinders University of South Australia and NH&MRC guidelines and the Australian Code of Practice for the care and use of animals for scientific purposes. The human breast cancer MDA MB 231 was grown as orthotopic xenografts in the mammary fat pad of nude mice. Each mouse was injected with 2×10^6 cells in 50 μl Dulbecco's PBS subcutaneously just above the mammary fat pad, below the right forward limb. Tumors were selected for treatment when they reached a diameter of […] (3 weeks after implantation). The test compound (Example 29) was dissolved in saline solution and injected intravenously at concentrations ranging from 150 mg/kg-1 mg/kg in a total volume of 400 ul. […] Non-tumor regions were mapped on Hoechst 33342 composite images and excluded from the quantitation analysis. Quantitation was performed by measuring the pixel area of Hoechst 33342 staining and the total pixel area of the tumor region. Perfusion was expressed as a percentage of Hoechst 33342 stained area to total tumor area (see FIG. 4).

A further assay relates to MCF-7. Briefly: Growth inhibition, Sulforhodamine B (SRB) or Systmex cell counting (CC) assay, MCF-7. The settings on record: Homo sapiens, MCF7, concentration required to inhibit net cell growth by 50%, read-out: Cancer cell line IC50. The format is cell-based.
A further assay relates to tubulin. Briefly: Tubulin Polymerisation Assay (fluorescent-based kit). The assay is classed as biochemical. As to conditions: compared with CA4 (1), FIG. 3. The procedure:
Tubulin Polymerisation Assay:
Tubulin polymerisation inhibition assays were performed using a fluorescent-based detection kit (#BK011, Cytoskeleton) according to the instructions of the manufacturer. The test compound was added to a 2 mg/ml tubulin solution containing 20% glycerol and 1 mM GTP in 1× Buffer 1 (Buffer 1: 80 mM Piperazine-N,N′-bis[2-ethanesulfonic acid] sequisodium salt; 2 mM magnesium chloride; 0.5 mM Ethylene glycol-bis(b-amino-ethyl ether)N,N,N′,N′-tetra-acetic acid, pH 6.9, 10 uM fluorescent reporter). Fluorescence was measured over a period of 42 minutes at 1 minute intervals. Increased fluorescence indicates increase in tubulin polymerisation. There is a ten-fold increase in the affinity of the fluorescent reporter for polymerised tubulin compared to monomeric tubulin subunits. The result is a fluorescence signal that closely follows tubulin polymerisation.

As usually defined, the IC50 is the midpoint of a concentration-inhibition curve. On to `COc1cc(C(=O)c2c(/C=C/C(N)=O)oc3c(O)c(OC)ccc23)cc(OC)c1OC` [Example 15, (E)-3-[7-Hydroxy-6-methoxy-3-(3,4,5-trimethoxy-benzoyl)benzofuran-2-yl]-acrylamide], for which the IC50 (with MDA-MB-231; in assay [1]; in assay [2]) was 1 to 10 nM throughout. Besides, in assay [1], the “potency towards activated (tumour) versus quiescent (normal) endothelial cells” value was “higher potency towards tumour endothelial cells (activated) over normal endothelial cells (quiescent)”.
On to `COc1cc(C(=O)c2c(NCCN(C)C)oc3c(O)c(OC)ccc23)cc(OC)c1OC` [Example 21], for which the IC50 (in the assay on MDA-MB-231; in assay [1]; in assay [2]) was 10 to 100 nM in each case.
As to `COc1cc(C(=O)c2c(C)oc3c(OP(=O)([O-])[O-])c(OC)ccc23)cc(OC)c1OC.[Na+].[Na+]` [Example 29, Disodium 6-methoxy-2-methyl-3-(3,4,5-trimethoxybenzoyl)benzofuran-7-yl phosphate], the “tumor growth (ratio to initial tumor volume)” value in assay [3] is “tumor growth inhibition”. In assay [4], the “potency at shutting-down tumour vasculature (reduction in tumour perfusion)” value is reported as “significantly greater potency than CA4 (1)”.
`COc1cc(C(=O)c2coc3c(N)c(OC)ccc23)cc(OC)c1OC` [Example 2, (7-Amino-6-methoxybenzofuran-3-yl)(3,4,5-trimethoxyphenyl)methanone]: the IC50 (in the assay with MDA-MB-231; in assay [1]; in assay [2]) was 1 to 10 nM throughout.
For `COc1cc(C(=O)c2c(NCCO)oc3c(O)c(OC)ccc23)cc(OC)c1OC` [Example 20, [7-Hydroxy-2-(2-hydroxy-ethylamino)-6-methoxy-benzofuran-3-yl]-(3,4,5-trimethoxy-phenyl)methanone], the IC50 (in the assay on MDA-MB-231; in assay [1]; in assay [2]) was 1 to 10 nM each time.
Regarding `COc1cc(C(=O)c2c(N(C)C)oc3c(O)c(OC)ccc23)cc(OC)c1OC` [Example 22, (2-N,N′-Dimethylamino-7-hydroxy-6-methoxy-benzofuran-3-yl)-(3,4,5-trimethoxy-phenyl)-methanone], the IC50 (with MDA-MB-231; in assay [1]; in assay [2]) was 1 to 10 nM each time.
Take `COC(=O)c1oc2c(O)c(OC)ccc2c1C(=O)c1cc(OC)c(OC)c(OC)c1` [Example 17, 7-Hydroxy-6-methoxy-3-(3,4,5-trimethoxy-benzoyl)-benzofuran-2-methylcarboxylate]: the IC50 (in the assay with MDA-MB-231; in assay [1]; in assay [2]) was 1 to 10 nM in each case.
With `COC(=O)CNc1oc2c(O)c(OC)ccc2c1C(=O)c1cc(OC)c(OC)c(OC)c1` [Example 24, [7-Hydroxy-6-methoxy-3-(3,4,5-trimethoxy-benzoyl)-benzofuran-2-ylamino]-acetic acid methyl ester], the IC50 (with MDA-MB-231; in assay [1]; in assay [2]) was 1 to 10 nM each time.
With `COc1cc(C(=O)c2c(C)oc3c(O)c(OC)ccc23)cc(OC)c1OC` [Example 11, 2-Methyl-7-hydroxy-3-(3,4,5-trimethoxybenzoyl)-6-methoxybenzofuran], the IC50 with MCF-7 is 2 nM; in assay [1], 0.1 to 1 nM; in assay [2], 10 to 100 nM. For the same compound, the “potency in inhibiting tubulin polymerisation” value with tubulin is recorded as “significantly greater potency than CA4 (1)”. Also, the “potency towards activated (tumour) versus quiescent (normal) endothelial cells” value in assay [1] is on record as “higher potency towards tumour endothelial cells (activated) over normal endothelial cells (quiescent)”.
`COc1cc(C(=O)c2c(Nc3cccnc3)oc3c(O)c(OC)ccc23)cc(OC)c1OC` [Example 25, [7-Hydroxy-6-methoxy-2-(pyridin-3-ylamino)-benzofuran-3-yl]-(3,4,5-trimethoxy-phenyl)-methanone]: the IC50 (in the assay with MDA-MB-231; in assay [1]; in assay [2]) was 1 to 10 nM each time.

Source of the values: patent US10213409B2, “Substituted benzofurans, benzothiophenes, benzoselenophenes and indoles and their use as tubulin polymerisation inhibitors” (Bionomics Limited, priority 2006, dated 2019).
